This passage reports Activity results from ChEMBL document CHEMBL2074335, “Cloning and functional characterization of the multidrug resistance-associated protein (MRP1/ABCC1) from the cynomolgus monkey” (Mol Cancer Ther, 2003).

This series has as its target Multidrug resistance-associated protein 1 (Homo sapiens, UniProt P33527). Nature of the series: TP_TRANSPORTER: drug resistance in MRP1-expressing PEAKSTABEL cells. In kind it is functional, cell-based. Particulars: peakstable.

Sequence of Multidrug resistance-associated protein 1 (P33527 whole entry): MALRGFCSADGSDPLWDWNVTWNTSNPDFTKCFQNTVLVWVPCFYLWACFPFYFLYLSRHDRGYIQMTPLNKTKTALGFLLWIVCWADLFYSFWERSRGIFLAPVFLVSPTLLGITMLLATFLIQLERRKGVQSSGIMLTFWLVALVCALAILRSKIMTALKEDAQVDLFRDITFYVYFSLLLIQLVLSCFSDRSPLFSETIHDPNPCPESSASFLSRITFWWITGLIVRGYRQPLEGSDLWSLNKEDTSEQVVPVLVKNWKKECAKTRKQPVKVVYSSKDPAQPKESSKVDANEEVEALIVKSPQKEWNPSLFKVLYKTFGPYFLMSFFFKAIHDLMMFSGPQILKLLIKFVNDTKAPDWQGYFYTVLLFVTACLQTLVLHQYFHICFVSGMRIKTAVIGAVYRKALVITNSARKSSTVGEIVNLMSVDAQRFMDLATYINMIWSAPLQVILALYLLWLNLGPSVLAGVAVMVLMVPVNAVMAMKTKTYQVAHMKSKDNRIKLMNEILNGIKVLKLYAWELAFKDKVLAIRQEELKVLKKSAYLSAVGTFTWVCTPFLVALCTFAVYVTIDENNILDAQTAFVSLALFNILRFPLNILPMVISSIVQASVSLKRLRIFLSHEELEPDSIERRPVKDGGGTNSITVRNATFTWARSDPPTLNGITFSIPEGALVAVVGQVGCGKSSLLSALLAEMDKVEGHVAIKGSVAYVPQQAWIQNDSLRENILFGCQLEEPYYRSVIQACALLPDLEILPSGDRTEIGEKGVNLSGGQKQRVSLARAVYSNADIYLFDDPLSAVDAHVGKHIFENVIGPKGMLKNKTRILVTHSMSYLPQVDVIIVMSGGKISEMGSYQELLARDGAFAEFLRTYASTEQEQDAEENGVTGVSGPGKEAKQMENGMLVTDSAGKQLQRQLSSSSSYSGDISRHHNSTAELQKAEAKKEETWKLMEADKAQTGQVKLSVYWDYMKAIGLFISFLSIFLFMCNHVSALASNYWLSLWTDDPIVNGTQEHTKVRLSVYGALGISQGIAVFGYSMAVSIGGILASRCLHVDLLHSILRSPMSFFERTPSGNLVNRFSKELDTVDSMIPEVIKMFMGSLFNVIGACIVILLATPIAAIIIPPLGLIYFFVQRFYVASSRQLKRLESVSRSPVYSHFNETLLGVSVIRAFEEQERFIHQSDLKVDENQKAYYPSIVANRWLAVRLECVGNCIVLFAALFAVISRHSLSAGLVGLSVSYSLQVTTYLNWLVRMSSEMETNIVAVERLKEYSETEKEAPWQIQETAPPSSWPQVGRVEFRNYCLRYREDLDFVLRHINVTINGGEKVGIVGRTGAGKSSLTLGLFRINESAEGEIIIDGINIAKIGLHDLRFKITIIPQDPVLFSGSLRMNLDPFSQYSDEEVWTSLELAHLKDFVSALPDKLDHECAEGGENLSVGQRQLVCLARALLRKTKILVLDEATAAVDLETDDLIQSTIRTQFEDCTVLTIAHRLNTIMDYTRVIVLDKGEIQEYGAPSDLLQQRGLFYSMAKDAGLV

In the case of `COc1cc(NC(=O)Cc2cccc(-n3c(=O)c4c(C)onc4c4c(Cl)cccc43)c2)cc(OC)c1OC`, the Activity entry is “inhibitor []”. Take `COc1cccc2c1C(=O)c1c(O)c3c(c(O)c1C2=O)C[C@@](O)(C(=O)CO)C[C@@H]3O[C@H]1C[C@H](N)[C@H](O)[C@H](C)O1` [DOXORUBICIN]: the Activity entry is “substrate []”. Under `COc1cccc2c1C(=O)c1c(O)c3c(c(O)c1C2=O)C[C@@](O)(C(=O)CO)C[C@@H]3O[C@H]1C[C@H](N)[C@@H](O)[C@H](C)O1` [EPIRUBICIN] stands “substrate []”; under `COc1cc([C@@H]2c3cc4c(cc3[C@@H](O[C@@H]3O[C@@H]5CO[C@@H](C)O[C@H]5[C@H](O)[C@H]3O)[C@H]3COC(=O)[C@H]23)OCO4)cc(OC)c1O` [ETOPOSIDE], “substrate []”; under `CC[C@]1(O)C[C@H]2CN(CCc3c([nH]c4ccccc34)[C@@](C(=O)OC)(c3cc4c(cc3OC)N(C=O)[C@H]3[C@@](O)(C(=O)OC)[C@H](OC(C)=O)[C@]5(CC)C=CCN6CC[C@]43[C@@H]65)C2)C1` [VINCRISTINE], “substrate []”.
